We go through 26 compounds from patent US8299111B2, “Compounds which modulate the CB2 receptor” (Boehringer Ingelheim International GmbH, priority 2006, dated 2012).

For this assay, the target named is T1, human CB2R (Homo sapiens, UniProt P34972).
T1 construct: host or cells: CHO cells
T1 sequence (P34972 whole entry): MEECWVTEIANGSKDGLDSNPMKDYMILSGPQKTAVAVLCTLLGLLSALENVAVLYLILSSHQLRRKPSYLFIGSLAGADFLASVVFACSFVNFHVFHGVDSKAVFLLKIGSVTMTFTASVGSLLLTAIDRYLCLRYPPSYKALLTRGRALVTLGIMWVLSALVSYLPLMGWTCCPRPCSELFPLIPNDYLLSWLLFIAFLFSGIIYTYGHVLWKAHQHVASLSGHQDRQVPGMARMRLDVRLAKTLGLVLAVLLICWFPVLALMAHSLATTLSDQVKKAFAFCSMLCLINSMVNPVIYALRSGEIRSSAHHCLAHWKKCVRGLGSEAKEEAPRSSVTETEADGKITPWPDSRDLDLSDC
Nature of the assay: CB2R mediated modulation of cAMP synthesis. The assay is classed as cell-based. Conditions: found through the use of the above described assays (binding and cAMP); CHO cells expressing human CB2R, forskolin-stimulated cAMP. In outline: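 CHO cells expressing human CB2R were treated for 30 min at 37 °C with compound in buffer containing 1 mM IBMX, 0.25% BSA and 10 uM forskolin. cAMP was measured after lysis. EC50 is the concentration giving 50% inhibition of forskolin-stimulated cAMP, scaled to the level set by 1 uM CP55940, fitted by four-parameter logistic.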
On to `CC(C)(C)c1cc(NC(=O)C(C)(C)S(=O)(=O)c2ccc(Br)cc2)no1` [2-(4-Bromo-benzenesulfonyl)-N-(5-tert-butyl-isoxazol-3-yl)-2-methyl-propionamide], for which the agonistic activity result is given as “agonistic activity”. Consider `CC(C)(C(=O)Nc1cccc(C(F)(F)F)n1)S(=O)(=O)c1ccc(F)cc1F` [2-[(2,4-difluorophenyl)sulfonyl]-2-methyl-N-[6-(trifluoromethyl)pyridin-2-yl]propanamide], for which the agonistic activity result is on record as “agonistic activity”.

Consider `CC1(C)CCc2cc(S(=O)(=O)C(C)(C)C(=O)Nc3cc(C(C)(C)C)on3)ccc2O1` [N-(5-tert-Butyl-isoxazol-3-yl)-2-(2,2-dimethyl-chroman-6-sulfonyl)-2-methyl-propionamide], for which the agonistic activity result was “agonistic activity”. In the case of `CCc1ccnc(NC(=O)C(C)(C)S(=O)(=O)c2ccc(Cl)cc2F)c1` [2-[(4-chloro-2-fluorophenyl)sulfonyl]-N-(4-ethylpyridin-2-yl)-2-methylpropanamide] it was “agonistic activity”; in that of `CC(C)(C(=O)Nc1ccc2ccccc2n1)S(=O)(=O)c1ccc(Cl)cc1F` [2-[(4-chloro-2-fluorophenyl)sulfonyl]-2-methyl-N-quinolin-2-ylpropanamide], “agonistic activity”; in that of `CCc1sc(NC(=O)C(C)(C)S(=O)(=O)c2ccc(OC)cc2)nc1-c1ccccc1` [N-(5-ethyl-4-phenyl-1,3-thiazol-2-yl)-2-[(4-methoxyphenyl)sulfonyl]-2-methylpropanamide], “agonistic activity”. As to `CC(C)(C)c1csc(NC(=O)C(C)(C)S(=O)(=O)c2ccc(Cl)cc2Cl)n1` [N-(4-tert-Butyl-thiazol-2-yl)-2-(2,4-dichloro-benzenesulfonyl)-2-methyl-propionamide], the agonistic activity result was “agonistic activity”. In the case of `Cn1nc(-c2cccs2)cc1NC(=O)C(C)(C)S(=O)(=O)c1ccc(Cl)cc1` [2-(4-Chloro-benzenesulfonyl)-2-methyl-N-(2-methyl-5-thiophen-2-yl-2H-pyrazol-3-yl)-propionamide] it was “agonistic activity”; in that of `CC(C)(C(=O)Nc1ccccc1Cl)S(=O)(=O)c1ccc(C(F)(F)F)cc1` [N-(2-Chloro-phenyl)-2-methyl-2-(4-trifluoromethyl-benzenesulfonyl)-propionamide], “agonistic activity”. In the case of `CC(C)(C)c1csc(NC(=O)C2(S(=O)(=O)c3ccc(Cl)cc3)CC2)n1` [1-(4-Chloro-benzenesulfonyl)-cyclopropanecarboxylic acid (4-tert-butyl-thiazol-2-yl)-amide] it was “agonistic activity”. For the compound `CC(C)(C(=O)Nc1cc(C(F)(F)F)ccn1)S(=O)(=O)c1ccc(S(C)(=O)=O)cc1` [2-methyl-2-{[4-(methylsulfonyl)phenyl]sulfonyl}-N-[4-(trifluoromethyl)pyridin-2-yl]propanamide], the agonistic activity entry is reported as “agonistic activity”. In the case of `CC(C)(C(=O)Nc1nc(-c2ccc(Cl)cc2)cs1)S(=O)(=O)c1ccc(F)cc1F` [N-[4-(4-Chloro-phenyl)-thiazol-2-yl]-2-(2,4-difluoro-benzenesulfonyl)-2-methyl-propionamide] it was “agonistic activity”. In the case of `CC(C)(C)c1cc(NC(=O)C(C)(C)S(=O)(=O)c2cc(F)ccc2F)on1` [N-(3-tert-Butyl-isoxazol-5-yl)-2-(2,5-difluoro-benzenesulfonyl)-2-methyl-propionamide] it was “agonistic activity”. In the case of `CC(C)(C(=O)Nc1cc2ccccc2cn1)S(=O)(=O)c1ccc(C(F)(F)F)nc1` [N-isoquinolin-3-yl-2-methyl-2-{[6-(trifluoromethyl)pyridin-3-yl]sulfonyl}propanamide] it was “agonistic activity”. For `CC(C)(C(=O)Nc1nc(C(F)(F)F)cs1)S(=O)(=O)c1ccc(Cl)cc1` [2-(4-Chloro-benzenesulfonyl)-2-methyl-N-(4-trifluoromethyl-thiazol-2-yl)-propionamide], the agonistic activity entry is reported as “agonistic activity”. In the case of `CC(C)(C)c1csc(NC(=O)C(C)(C)S(=O)(=O)c2cccc(C(F)(F)F)c2)n1` [N-(4-tert-Butyl-thiazol-2-yl)-2-methyl-2-(3-trifluoromethyl-benzenesulfonyl)-propionamide] it was “agonistic activity”. The value for `CC(C)(C(=O)Nc1nc2ccccc2o1)S(=O)(=O)c1ccc(C(F)(F)F)nc1` [N-1,3-benzoxazol-2-yl-2-methyl-2-{[6-(trifluoromethyl)pyridin-3-yl]sulfonyl}propanamide] was “agonistic activity”; that for `CC(C)(C)c1cc(NC(=O)C(C)(C)S(=O)(=O)c2ccc(Cl)cc2)on1` [N-(3-tert-Butyl-isoxazol-5-yl)-2-(4-chloro-benzenesulfonyl)-2-methyl-propionamide] was “agonistic activity”. In the case of `Cn1nc(C(C)(C)C)cc1NC(=O)C(C)(C)S(=O)(=O)c1ccccc1F` [N-(5-tert-Butyl-2-methyl-2H-pyrazol-3-yl)-2-(2-fluoro-benzenesulfonyl)-2-methyl-propionamide] it was “agonistic activity”.

Regarding `Cn1nc(-c2ccccc2)cc1NC(=O)C(C)(C)S(=O)(=O)c1ccc(C(F)(F)F)nc1` [2-Methyl-N-(2-methyl-5-phenyl-2H-pyrazol-3-yl)-2-(6-trifluoromethyl-pyridine-3-sulfonyl)-propionamide], the agonistic activity result is listed as “agonistic activity”. The value for `CC(C)c1cc(NC(=O)C(C)(C)S(=O)(=O)c2ccc(Cl)cc2)n(C)n1` [2-(4-Chloro-benzenesulfonyl)-N-(5-isopropyl-2-methyl-2H-pyrazol-3-yl)-2-methyl-propionamide] was “agonistic activity”; that for `Cc1nc(NC(=O)C2(S(=O)(=O)c3ccc(C(F)(F)F)cc3)CCOCC2)sc1C(C)(C)C` [4-(4-Trifluoromethyl-benzenesulfonyl)-tetrahydro-pyran-4-carboxylic acid (5-tert-butyl-4-methyl-thiazol-2-yl)-amide] was “agonistic activity”; that for `CC(C)C(C(=O)Nc1cc(C(C)(C)C)nn1C)S(=O)(=O)c1ccc(C(F)(F)F)cc1` (centres unmarked) [N-(5-tert-Butyl-2-methyl-2H-pyrazol-3-yl)-3-methyl-2-(4-trifluoromethyl-benzenesulfonyl)-butyramide] was “agonistic activity”. As to `CC(C)(C(=O)Nc1nc(-c2ccc(Cl)cc2)cs1)S(=O)(=O)c1ccccc1` [2-Benzenesulfonyl-N-[4-(4-chloro-phenyl)-thiazol-2-yl]-2-methyl-propionamide], the agonistic activity entry was “agonistic activity”. In the case of `CC(C)(C(=O)Nc1nc(-c2ccc(Cl)cc2)cs1)S(=O)(=O)c1ccc(Cl)cc1` [2-(4-Chloro-benzenesulfonyl)-N-[4-(4-chloro-phenyl)-thiazol-2-yl]-2-methyl-propionamide] it was “agonistic activity”; in that of `CC(C)(C(=O)Nc1nc2c(s1)CCCC2)S(=O)(=O)c1ccc(Cl)cc1` [2-(4-Chloro-benzenesulfonyl)-2-methyl-N-(4,5,6,7-tetrahydro-benzothiazol-2-yl)-propionamide], “agonistic activity”.
